Here are results for 14 compounds from US11331369B2, “Endoparasitic depsipeptides” (Zoetis Services LLC, priority 2017, dated 2022).

This test deals with microfilariae of Dirofilaria immitis. Kind of test: Dirofilaria immitis, Microfilaria (DiMF) In vitro Assay. The following applies: 72 h, read-out: DiMF Minimum Effective Dose (MED), approximately 72 hours incubation, microfilariae assessed for survival or paralysis. The class given is cell-based.
As for `Cc1cnn(Cc2ccc(C[C@H]3OC(=O)[C@H](CC(C)C)N(C)C(=O)[C@@H](C)OC(=O)[C@H](CC(C)C)N(C)C(=O)[C@@H](Cc4ccc(Cn5cc(Br)cn5)cc4)OC(=O)[C@H](CC(C)C)N(C)C(=O)[C@@H](C)OC(=O)[C@H](CC(C)C)N(C)C3=O)cc2)c1` [Example 1a-24, (3S,6R,9S,12R,15S,18R,21S,24R)-6-(4-((4-bromo-1H-pyrazol-1-yl)methyl)benzyl)-3,9,15,21-tetraisobutyl-4,10,12,16,22,24-hexamethyl-18-(4-((4-methyl-1H-pyrazol-1-yl)methyl)benzyl)-1,7,13,19-tetraoxa-4,10,16,22-tetraazacyclotetracosan-2,5,8,11,14,17,20,23-octaone], the minimal effective concentration fell in the range of 0.001 to 0.01 µM.

On to `CC(C)C[C@H]1C(=O)O[C@H](Cc2ccc(CN3CCOc4ccccc43)cc2)C(=O)N(C)[C@@H](CC(C)C)C(=O)O[C@H](C)C(=O)N(C)[C@@H](CC(C)C)C(=O)O[C@H](Cc2ccccc2)C(=O)N(C)[C@@H](CC(C)C)C(=O)O[C@H](C)C(=O)N1C` [Example 10-16, (3S,6R,9S,12R,15S,18R,21S,24R)-6-benzyl-18-(4-((2,3-dihydro-4H-benzo[b][1,4]oxazin-4-yl)methyl)benzyl)-3,9,15,21-tetraisobutyl-4,10,12,16,22,24-hexamethyl-1,7,13,19-tetraoxa-4,10,16,22-tetraazacyclotetracosan-2,5,8,11,14,17,20,23-octaone], for which the minimal effective concentration fell in the range of 0.01 to 0.1 µM. For `CC(C)C[C@H]1C(=O)O[C@H](Cc2ccc(Cn3cc(C(C)(C)C)cn3)cc2)C(=O)N(C)[C@@H](CC(C)C)C(=O)O[C@H](C)C(=O)N(C)[C@@H](CC(C)C)C(=O)O[C@H](Cc2ccccc2)C(=O)N(C)[C@@H](CC(C)C)C(=O)O[C@H](C)C(=O)N1C` [Example 2-8, (3S,6R,9S,12R,15S,18R,21S,24R)-6-benzyl-18-[[4-[(4-tert-butylpyrazol-1-yl)methyl]phenyl]methyl]-3,9,15,21-tetraisobutyl-4,10,12,16,22,24-hexamethyl-1,7,13,19-tetraoxa-4,10,16,22-tetrazacyclotetracosane-2,5,8,11,14,17,20,23-octaone] the value was 0.01 to 0.1 µM; for `CC(=O)NCc1cnn(Cc2ccc(C[C@H]3OC(=O)[C@H](CC(C)C)N(C)C(=O)[C@@H](C)OC(=O)[C@H](CC(C)C)N(C)C(=O)[C@@H](Cc4ccccc4)OC(=O)[C@H](CC(C)C)N(C)C(=O)[C@@H](C)OC(=O)[C@H](CC(C)C)N(C)C3=O)cc2)c1` [Example 2-52, N-((1-(4-(((2R,5S,8R,11S,14R,17S,20R,23S)-14-benzyl-5,11,17,23-tetraisobutyl-4,8,10,16,20,22-hexamethyl-3,6,9,12,15,18,21,24-octaoxo-1,7,13,19-tetraoxa-4,10,16,22-tetraazacyclotetracosan-2-yl)methyl)benzyl)-1H-pyrazol-4-yl)methyl)acetamide], 0.01 to 0.1 µM.

With `CC(C)C[C@H]1C(=O)O[C@H](Cc2ccc(Cn3cc(Br)c(C#N)n3)cc2)C(=O)N(C)[C@@H](CC(C)C)C(=O)O[C@H](C)C(=O)N(C)[C@@H](CC(C)C)C(=O)O[C@H](Cc2ccc(Cn3cc(N)cn3)cc2)C(=O)N(C)[C@@H](CC(C)C)C(=O)O[C@H](C)C(=O)N1C` [Example 1a-32, 1-(4-(((2R,5S,8R,11S,14R,17S,20R,23S)-14-(4-((4-amino-1H-pyrazol-1-yl)methyl)benzyl)-5,11,17,23-tetraisobutyl-4,8,10,16,20,22-hexamethyl-3,6,9,12,15,18,21,24-octaoxo-1,7,13,19-tetraoxa-4,10,16,22-tetraazacyclotetracosan-2-yl)methyl)benzyl)-4-bromo-1H-pyrazole-3-carbonitrile], the minimal effective concentration lay in the range of 0.01 to 0.1 µM. The value for `CC(C)C[C@H]1C(=O)O[C@H](Cc2ccc(Cn3nccc3N)cc2)C(=O)N(C)[C@@H](CC(C)C)C(=O)O[C@H](C)C(=O)N(C)[C@@H](CC(C)C)C(=O)O[C@H](Cc2ccc(Cn3nccc3N)cc2)C(=O)N(C)[C@@H](CC(C)C)C(=O)O[C@H](C)C(=O)N1C` [Example 1b-144, (3S,6R,9S,12R,15S,18R,21S,24R)-6,18-bis(4-((5-amino-1H-pyrazol-1-yl)methyl)benzyl)-3,9,15,21-tetraisobutyl-4,10,12,16,22,24-hexamethyl-1,7,13,19-tetraoxa-4,10,16,22-tetraazacyclotetracosan-2,5,8,11,14,17,20,23-octaone] was 0.01 to 0.1 µM; that for `CC(C)C[C@H]1C(=O)O[C@H](Cc2ccc(Cn3cc4c(n3)CNC4)cc2)C(=O)N(C)[C@@H](CC(C)C)C(=O)O[C@H](C)C(=O)N(C)[C@@H](CC(C)C)C(=O)O[C@H](Cc2ccccc2)C(=O)N(C)[C@@H](CC(C)C)C(=O)O[C@H](C)C(=O)N1C` [Example 10-27, (3S,6R,9S,12R,15S,18R,21S,24R)-6-benzyl-18-(4-((5,6-dihydropyrrolo[3,4-c]pyrazol-2(4H)-yl)methyl)benzyl)-3,9,15,21-tetraisobutyl-4,10,12,16,22,24-hexamethyl-1,7,13,19-tetraoxa-4,10,16,22-tetraazacyclotetracosan-2,5,8,11,14,17,20,23-octaone] was 0.01 to 0.1 µM; that for `CC(C)C[C@H]1C(=O)O[C@H](Cc2ccc(Cn3cc(-c4cnccn4)cn3)cc2)C(=O)N(C)[C@@H](CC(C)C)C(=O)O[C@H](C)C(=O)N(C)[C@@H](CC(C)C)C(=O)O[C@H](Cc2ccccc2)C(=O)N(C)[C@@H](CC(C)C)C(=O)O[C@H](C)C(=O)N1C` [Example 2-46, (3S,6R,9S,12R,15S,18R,21S,24R)-6-benzyl-3,9,15,21-tetraisobutyl-4,10,12,16,22,24-hexamethyl-18-(4-((4-(pyrazin-2-yl)-1H-pyrazol-1-yl)methyl)benzyl)-1,7,13,19-tetraoxa-4,10,16,22-tetraazacyclotetracosan-2,5,8,11,14,17,20,23-octaone] was 0.001 to 0.01 µM. Regarding `CCOc1cn(Cc2ccc(C[C@H]3OC(=O)[C@H](CC(C)C)N(C)C(=O)[C@@H](C)OC(=O)[C@H](CC(C)C)N(C)C(=O)[C@@H](Cc4ccc(Cn5cc(OCC)c(C)n5)cc4)OC(=O)[C@H](CC(C)C)N(C)C(=O)[C@@H](C)OC(=O)[C@H](CC(C)C)N(C)C3=O)cc2)nc1C` [Example 1b-198, (3S,6R,9S,12R,15S,18R,21S,24R)-6,18-bis[[4-[(4-ethoxy-3-methyl-pyrazol-1-yl)methyl]phenyl]methyl]-3,9,15,21-tetraisobutyl-4,10,12,16,22,24-hexamethyl-1,7,13,19-tetraoxa-4,10,16,22-tetrazacyclotetracosane-2,5,8,11,14,17,20,23-octaone], the minimal effective concentration lay within 0.01 to 0.1 µM. In the case of `CC(C)C[C@H]1C(=O)O[C@H](Cc2ccc(Cn3cc(CO)c(C(F)(F)F)n3)cc2)C(=O)N(C)[C@@H](CC(C)C)C(=O)O[C@H](C)C(=O)N(C)[C@@H](CC(C)C)C(=O)O[C@H](Cc2ccc(Cn3cc(CO)c(C(F)(F)F)n3)cc2)C(=O)N(C)[C@@H](CC(C)C)C(=O)O[C@H](C)C(=O)N1C` [Example 1b-162, (3S,6R,9S,12R,15S,18R,21S,24R)-6,18-bis(4-((4-(hydroxymethyl)-3-(trifluoromethyl)-1H-pyrazol-1-yl)methyl)benzyl)-3,9,15,21-tetraisobutyl-4,10,12,16,22,24-hexamethyl-1,7,13,19-tetraoxa-4,10,16,22-tetraazacyclotetracosan-2,5,8,11,14,17,20,23-octaone], the minimal effective concentration lay within 0.01 to 0.1 µM. With `Cc1nn(Cc2ccc(C[C@H]3OC(=O)[C@H](CC(C)C)N(C)C(=O)[C@@H](C)OC(=O)[C@H](CC(C)C)N(C)C(=O)[C@@H](Cc4ccc(Cn5cc(OC(C)C)c(C)n5)cc4)OC(=O)[C@H](CC(C)C)N(C)C(=O)[C@@H](C)OC(=O)[C@H](CC(C)C)N(C)C3=O)cc2)cc1OC(C)C` [Example 1b-199, (3S,6R,9S,12R,15S,18R,21S,24R)-3,9,15,21-tetraisobutyl-6,18-bis[[4-[(4-isopropoxy-3-methyl-pyrazol-1-yl)methyl]phenyl]methyl]-4,10,12,16,22,24-hexamethyl-1,7,13,19-tetraoxa-4,10,16,22-tetrazacyclotetracosane-2,5,8,11,14,17,20,23-octaone], the minimal effective concentration was in the range of 0.01 to 0.1 µM.

As to `CC(C)C[C@H]1C(=O)O[C@H](Cc2ccc(Cn3ccnc3)cc2)C(=O)N(C)[C@@H](CC(C)C)C(=O)O[C@H](C)C(=O)N(C)[C@@H](CC(C)C)C(=O)O[C@H](Cc2ccc(Cn3ccnc3)cc2)C(=O)N(C)[C@@H](CC(C)C)C(=O)O[C@H](C)C(=O)N1C` [Example 6-2, (3S,6R,9S,12R,15S,18R,21S,24R)-6,18-bis[[4-(imidazol-1-ylmethyl)phenyl]methyl]-3,9,15,21-tetraisobutyl-4,10,12,16,22,24-hexamethyl-1,7,13,19-tetraoxa-4,10,16,22-tetrazacyclotetracosane-2,5,8,11,14,17,20,23-octaone], the minimal effective concentration was 0.01 to 0.1 µM. As to `CC(=O)Nc1c(C)nn(Cc2ccc(C[C@H]3OC(=O)[C@H](CC(C)C)N(C)C(=O)[C@@H](C)OC(=O)[C@H](CC(C)C)N(C)C(=O)[C@@H](Cc4ccccc4)OC(=O)[C@H](CC(C)C)N(C)C(=O)[C@@H](C)OC(=O)[C@H](CC(C)C)N(C)C3=O)cc2)c1C` [Example 2-43, N-(1-(4-(((2R,5S,8R,11S,14R,17S,20R,23S)-14-benzyl-5,11,17,23-tetraisobutyl-4,8,10,16,20,22-hexamethyl-3,6,9,12,15,18,21,24-octaoxo-1,7,13,19-tetraoxa-4,10,16,22-tetraazacyclotetracosan-2-yl)methyl)benzyl)-3,5-dimethyl-1H-pyrazol-4-yl)acetamide], the minimal effective concentration lay in the range of 0.01 to 0.1 µM. The value for `CC(C)C[C@H]1C(=O)O[C@H](Cc2ccc(CN3CCN(C(=O)OC(C)(C)C)CC3)cc2)C(=O)N(C)[C@@H](CC(C)C)C(=O)O[C@H](C)C(=O)N(C)[C@@H](CC(C)C)C(=O)O[C@H](Cc2ccccc2)C(=O)N(C)[C@@H](CC(C)C)C(=O)O[C@H](C)C(=O)N1C` [Example 10-9, tert-butyl 4-(4-(((2R,5S,8R,11S,14R,17S,20R,23S)-14-benzyl-5,11,17,23-tetraisobutyl-4,8,10,16,20,22-hexamethyl-3,6,9,12,15,18,21,24-octaoxo-1,7,13,19-tetraoxa-4,10,16,22-tetraazacyclotetracosan-2-yl)methyl)benzyl)piperazine-1-carboxylate] was 0.01 to 0.1 µM.
